This is an account of results in patent US6998240B2, “Screen for selective inhibitors or activators of Smad protein function” (Wisconsin Alumni Research Foundation, priority 2001, dated 2006).

The target of assay [1] is T1, Smad2-P (Homo sapiens, UniProt Q15796).
T1 construct: Smad2; 1–467; pBlueBac; His; made in house; host or cells: Sf9 insect cells (baculovirus), co-infected with virus for membrane-targeted human Alk5 T204D
Put plainly: HTRF assay of biotin-FAST peptide binding to Smad2-P (competition). An excerpt: (§1) To establish HTRF assays for Smad protein interactions, we have used reagents from Wallac-Perkin Elmer and Packard that include Europium-cryptate coupled to α-His epitope tag antibody, α-GST antibody or Streptavidin. As acceptor fluorophores we have used allophycocyanin (Packard's XL665) coupled to Streptavidin or direct labeling of GST-fusion protein with IC5 (Dojindo). Reagents are mixed in a 50 microliter volume in the wells of a 384 Black non-treated microwell plate (Corning) and HTRF detected in a Wallac Victor V multimode plate reader. The reader detects emission at 615 nm from the Europium chelate donor and at 665 nm from the APC or IC5 acceptor. Background, cross-talk and high FRET wells can be indicated on the plate map to allow the machine to compute a normalized value as a ratio Rn=(ET/D) Dmax where ET=A−BI−(C×D). • A—Fluorescence at 665 nm • BI—Blank (buffer only) at 665 nm • D—Fluorescence at 615 nm • C—Cross-talk correction value calculated from wells containing only donor fluorophore • (from “Quench Correction for LANCE TR-FRET” by Perkin-Elmer Wallace)
(§2) Over the past several months we have developed three HTRF assays for Smad binding interactions. All three assays use a Eu-chelate α-His epitope tag antibody as the donor. The antibody recognizes the hexahistidine epitope tag on the Smad proteins produced in the baculovirus expression system described above. As acceptors, we have used Streptavidin conjugated to allophycocyanin (Packard) that binds to biotinylated peptides. The peptides are synthesized to comprise the Smad interaction domain motif from human FAST or c-Jun (FIG. 3). The FAST 24-mer amino acid sequence is based on the homology between FAST, Mixer and Milk reported by Germain and colleagues (Germain, S., et al., supra, 2000). The24-mer C-JUN sequence is based on studies using deletions and gene fragments to define the Smad interaction motif (Zhang, Y., et al., supra, 1998; Liberati, N. T. et al., Proc. Natl. Acad. Sci. USA 96:4844–9, 1999). We also have developed an HTRF assay using IC5-GST-CBP, a fusion protein comprising the Smad interaction domain motif from CBP (a generous gift of Dr. Yigong Shi, Princeton University).
(§3) The assays are done in a 50 μl volume in the well of a 384-well plate. The assay buffer, as recommended by Packard for their HTRF reagents is 50 mM K-Hepes pH 7.0, 400 mM KF and 0.1% BSA. The high concentration of KF is recommended for the Eu(K) reagents from Packard. […] We have also optimized through many titrations the amount of Smad protein (220 ng/well, ˜4 pmoles per well of monomer), the concentration of biotinylated peptide (1 uMolar for FAST and C-JUN), the amount of Eu-anti-His tag antibody (36 ng/well) and the amount of Streptactin-APC (0.5 μg/well).
We used the FAST-SmadP HTRF assay described above. […] After 1 hr at room temperature, Streptavidin-APC was added to each well and 30 minutes later the fluorescence emissions at 615 nm and 665 nm were read in a PE-Wallac Victor V.
A general note: TR-FRET usually uses a lanthanide donor and a delayed reading to cut background.

The target in assay [2] is T1, Smad2-P. Put plainly: HTRF assay of IC5-GST-CBP binding to phosphorylated Smad2.
From the text: as §1, §2, §3
Table 5 contains data from using the GST-CBP fusion protein that is covalently coupled to the IC5 fluorophore acceptor through the cysteines in the GST portion of the fusion protein. There is no biotinylated peptide or Streptavidin-APC in these assays. […] The lower FRET counts could be due to larger distances between the donor and acceptor molecules in the complex. This might be overcome by using direct labeling of the Smad-P complex with Eu-cryptates rather than the Eu-labeled anti-His tag antibody.

Assay [3] has as its target Phosphorylated Smad2/4 Complex (Homo sapiens, UniProt Q15796). Put plainly: 96 well microplate solid phase binding assay of GST-CBP to phosphorylated Smad2/4 complex. Also noted: Smad2; 1–467; pBlueBac; His; Smad4; 1–552; Strep; Strep-tag; made in house. How it is done:
Table 7, below, tabulates the results of a 96 well Microplate Format Binding Assay of CBP to Smad2 and Phosphorylated Smad2/4 Complex. Duplicate wells are shown with indicated amounts of Smad protein bound per well. Three different dilutions of biotinylated GST-CBP protein were added per well and incubated at room temperture for 1 hour. Wells were washed 3× with TBS+1% tween and Alkaline phosphatase conjugated strepavidin (Tropix) added. Bound conjugate was detected by addition of the CSPD substrate (Tropix) and relative light units (RLU) measured in a Tropix 717 microplate reader at a read time of 1 second per well.

pIC50: −log10 of the molar value. Residues, ends and D or L forms follow the SMILES beside them.

On to `CC[C@H](C)[C@H](NC(=O)[C@H](CC(N)=O)NC(=O)[C@@H](NC(=O)[C@H](CCCNC(=N)N)NC(=O)[C@H](Cc1ccc(O)cc1)NC(=O)[C@H](CC(C)C)NC(=O)[C@H](Cc1c[nH]cn1)NC(=O)[C@H](CCC(N)=O)NC(=O)[C@H](CCC(N)=O)NC(=O)[C@H](CCC(N)=O)NC(=O)[C@H](CCC(N)=O)NC(=O)[C@H](C)NC(=O)[C@H](CCC(=O)O)NC(=O)[C@H](CCCNC(=N)N)NC(=O)[C@H](CCC(=O)O)NC(=O)[C@@H](NC(=O)[C@H](CCC(N)=O)NC(=O)[C@H](CCCNC(=N)N)NC(=O)[C@H](C)NC(=O)[C@H](C)NC(=O)[C@H](CCC(=O)O)NC(=O)[C@@H](NC(=O)[C@H](C)N)C(C)C)[C@@H](C)CC)C(C)C)C(N)=O` [CBP] (H-AVEAARQIEREAQQQQHLYRVNI-NH2; N-terminus assumed), for which the “competition for Biotin-FAST binding to Smad-2P (in words)” value on Smad2-P [1] was “inability”. On Smad2-P [2], the “competition for binding with the GST-CBP fusion protein (in words)” value is on record as “can compete”. For the same compound, the “Average Normalized Counts” value stood at 587 on Smad2-P [2] (50 μM inhibitor peptide, IC5-GST-CBP binding to Smad2-P) and 478 on Smad2-P [2] (100 μM inhibitor peptide, IC5-GST-CBP binding to Smad2-P). The remaining activity at 50 µM at Smad2-P [2] (50 μM inhibitor peptide, IC5-GST-CBP binding to Smad2-P, read-out: Percent of Control (minus background)) came to 70%. Also, the remaining activity at 100 µM at Smad2-P [2] (100 μM inhibitor peptide, IC5-GST-CBP binding to Smad2-P, read-out: Percent of Control (minus background)) amounted to 51%. Also, on Smad2-P [2] (read-out: concentration of peptide for 50% inhibition of GST-CBP binding), the pIC50 is 4.00. The “CBP bound by Smad-P complexes relative to an equivalent amount of unphosphorylated Smad” value in assay [3] is on record as above 30 fold.
